{
  "source": "patent US6814951B1",
  "about": "“Acetaldehyde and malondialdehyde protein adducts as markers for alcohol liver disease” (The Board of Regents of the University of Nebraska, priority 1995, dated 2004)",
  "key": {"[1]": {"biological_target": "affinity-purified polyclonal antibody specific for MAA adducts", "assay": "Competitive ELISA: inhibition of MAA-specific antibody binding to solid-phase BSA-MAA", "design": "species or system rabbit", "conditions": "for 50% inhibitory concentration: bovine serum albumin-MAA as solid phase antigen", "text": "A competitive ELISA was developed in order to detect the presence and to quantify the level of MDA/acetaldehyde modified proteins. Following the basic methodology developed by Roberts, et al, “A Sensitive Immunochemical Assay for Acetaminophen-Protein Adducts”, J Pharmacol Exp Ther, 1987; 241:527-533; Pumford, et al, “Immunochemical Quantitation of 3-(cystein-S-yl)Acetaminophen Adducts in Serum and Liver Proteins of Acetaminophen-Treated Mice”, J Pharmacol Exp Ther, 1989; 248:190-196, incorporated herein by reference, these assays were conducted by allowing a limiting amount of antibody to react with inhibitor, either standard or unknown, in the presence of excess solid phase antigen (MDA/acetaldehyde modified proteins). […] Biotinylated antibody (1/500 final dilution) was incubated with varying concentrations of test samples (standards or unknowns) overnight at 4° C., and then a 100 μl-aliquot of each sample was added to duplicate wells of the coated plates and incubated for 45 minutes at 37° C. After washing, 100 μl of alkaline phosphatase-conjugated streptavidin was added, and procedures as described above for the Direct ELISA were used to obtain optical density measurements. […] [formula]\nwhere ODmax is OD in the absence of inhibitor, BKG is OD from nonspecific absorption of assay reagents and ODsample is the OD for a given concentration of standard or unknown sample.\nAn immunological assay, using an affinity-purified polyclonal antibody specific for MAA adducts, was employed to detect the presence of these adducts in livers of ethanol-fed rats. Since MAA adducts are likely composed of more than one distinct product, applicants proposed that 4-methyl-1,4-dihydropyridine-3,5-dicarbaldehyde (MDDC), derivatized to an ε-amino group of lysine, represents a structure for one of the major MAA-protein adducts. The purpose of this study was to characterize the antigen binding properties of the MAA specific antibody and determine whether MDDC epitopes are a major determinant of antibody recognition. A competitive ELISA, utilizing bovine serum albumin-MAA as the solid phase antigen, was used to test the binding specificity of the antibody."}, "[2]": {"biological_target": "T1, bovine serum albumin (BSA) (Bos taurus, UniProt P02769)", "T1 construct": "purchased Sigma Chemical Co. (St. Louis, Mo.)", "T1 sequence (P02769 25-607)": "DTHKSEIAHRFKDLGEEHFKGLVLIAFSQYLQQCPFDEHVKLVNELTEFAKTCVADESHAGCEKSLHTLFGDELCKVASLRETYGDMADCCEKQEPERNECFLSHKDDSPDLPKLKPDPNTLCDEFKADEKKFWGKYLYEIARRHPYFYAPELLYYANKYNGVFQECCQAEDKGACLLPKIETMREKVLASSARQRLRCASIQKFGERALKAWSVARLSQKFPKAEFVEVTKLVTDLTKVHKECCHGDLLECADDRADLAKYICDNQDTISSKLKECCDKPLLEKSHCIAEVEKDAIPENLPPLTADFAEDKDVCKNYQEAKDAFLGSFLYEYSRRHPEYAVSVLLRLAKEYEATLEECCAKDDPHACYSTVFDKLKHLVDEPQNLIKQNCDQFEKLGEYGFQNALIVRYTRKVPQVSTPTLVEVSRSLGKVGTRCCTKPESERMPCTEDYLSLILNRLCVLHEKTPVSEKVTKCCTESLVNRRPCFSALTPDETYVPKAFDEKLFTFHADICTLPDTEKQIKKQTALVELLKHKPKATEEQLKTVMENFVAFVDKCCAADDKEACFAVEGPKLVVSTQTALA", "assay": "Stable binding of acetaldehyde to proteins in the presence of MDA", "format": "biochemical", "conditions": "acetaldehyde 1 mM, 24 hours of incubation, 4-fold molar excess of MDA", "method": "Concentrations of acetaldehyde (0.1 mM or 1.0 mM) were incubated with various protein solutions in the absence and presence of varying concentrations of MDA. Incubations were conducted in phosphate buffer (0.1 M, pH 7.4) at 37° C. in polypropylene vessels that were sealed to minimize the loss of volatile radioactivity. The reactions were performed under nitrogen gas in the dark. During a 72-hr incubation period, aliquots were removed for stable acetaldehyde binding determinations and fluorescence measurements as previously described. Hoffmann, “Reaction of Acetaldehyde with Proteins: Formation of Stable Fluorescent Adducts”, Alcohol Clin Exp Res, 1993; 17:69-74. Briefly, postincubation, free and unstable-bound acetaldehyde were separated by exhaustive dialysis against phosphate buffer for 24 hours at 4° C. Radioactivity was then measured in the retenate and represented stably bound acetaldehyde. Results are expressed as nmoles acetaldehyde bound per mg of protein. Fluorescence measurements were obtained on post-dialysis samples using a Perkin Elmer LS-5B spectrophotofluorometer attached to a Perkin Elmer GP-100 graphics printer.\nWhen acetaldehyde (1 mM) was incubated with bovine serum albumin (BSA) in the presence of varying concentrations of MDA over a 72-hour time course, MDA markedly stimulated the binding of acetaldehyde to BSA in a concentration-dependent manner. […]"}, "Balc/c mice": {"test_system": "Balc/c mice", "assay": "Immunization of mice with BSA or BSA-MAA, antiserum titration by ELISA", "format": "in vivo", "conditions": "antiserum tested on MSA and MSA-MAA", "method": "The purpose of this study was to determine how modification of a soluble carrier protein with the MAA adduct alters the humoral immune response. Balc/c mice were immunized weekly by i.p. injection with 100 μg of either bovine serum albumin unmodified (BSA) or modified with MAA (BSA-MAA). Titration of antiserum was performed by ELISA on wells coated with either BSA, BSA-MAA, mouse albumin (MSA) and MSA-MAA. […] In mice immunized with lower concentrations of BSA-MAA, antibody titers decreased in a dose dependent manner to both BSA and BSA-MAA (>1:3200 at 100 μg to 1:2000 at 25 μg)."}},
  "data": [
    {"compound": "CCCCCCN1C=C(C=O)C(C)C(C=O)=C1", "note": "[1-hexyl-MDDC]", "values": [
      {"measurement": "50% inhibitory concentration", "setting": "[1]", "result": 4, "unit": "pmoles/well"}
    ]},
    {"compound": "CC1C(C=O)=CNC=C1C=O", "note": "[1-hydrogen MDDC, 4-methyl-1,4-dihydropyridine-3,5-dicarbaldehyde]", "values": [
      {"measurement": "50% inhibitory concentration", "setting": "[1]", "result": 240, "unit": "pmoles/well"}
    ]},
    {"compound": "CC1C(C=O)=CN(C)C=C1C=O", "note": "[1-methyl MDDC]", "values": [
      {"measurement": "50% inhibitory concentration", "setting": "[1]", "result": 14, "unit": "pmoles/well"}
    ]},
    {"compound": "O=CCC=O", "note": "[MDA, malondialdehyde]", "values": [
      {"measurement": "stimulation of acetaldehyde binding to BSA", "setting": "[2]", "result": 13, "unit": "fold"}
    ]},
    {"compound": "NC(=O)C1=CN([C@@H]2O[C@H](COP(=O)(O)OP(=O)(O)OC[C@H]3O[C@@H](n4cnc5c(N)ncnc54)[C@H](O)[C@@H]3O)[C@@H](O)[C@H]2O)C=CC1", "note": "[NADH, reference compound]", "values": [
      {"measurement": "inhibition of antibody binding", "setting": "[1]", "result": "negligible inhibitions"}
    ]},
    {"compound": "Cc1ncc(CO)c(C=O)c1O", "note": "[pyridoxal, reference compound]", "values": [
      {"measurement": "inhibition of antibody binding", "setting": "[1]", "result": "negligible inhibitions"}
    ]},
    {"compound": "BSA-MAA: bovine serum albumin modified with MAA (malondialdehyde-acetaldehyde adduct)", "values": [
      {"measurement": "antibody titer to the MAA adduct (tested on MSA-MAA)", "setting": "Balc/c mice", "result": "significant antibody titer"},
      {"measurement": "response to the autologous protein (MSA)", "setting": "Balc/c mice", "result": "no response"}
    ]}
  ]
}
